Test results: patent US10273290B2, “Hydrocarbon double-stapled stabilized HIV-1 GP41 heptad repeat domain peptides” (DANA-FARBER CANCER INSTITUTE, INC., priority 2009, dated 2019)
“Also recorded” adds a separate entry of the source. Bridge positions count the residues as written; N and C are the ends. Square brackets hold non-standard residues; d marks the D form. Peptide text beside a SMILES is read from it. S5 = C=CCCC[C@](C)(N)C(=O)O; Nle = CCCC[C@H](N)C(=O)O

Key:
[1] = Circular dichroism, α-helical content; type: physicochemical; details: pH 2 versus pH 7
In short: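 Far-UV CD spectra recorded at 20° C, 190-260 nm, 0.1 cm path, 10 accumulations. Percent α-helicity from mean residue ellipticity at 222 nm: 100×[θ]222/max[θ]222, with max[θ]222=−40,000×[1−(2.5/number of residues)]. Secondary-structure fractions also estimated by CDNN curve-fitting.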

[2] = Pharmacokinetics in mice, intravenous or oral gavage; type: in vivo, Male C57/BL6 mice
Protocol: Peptides were incubated (5-10 μg) with mouse plasma at 37° C. or injected (10, mg/kg) by tail vein into male C57/BL6 mice. […] For ex vivo serum stability studies, peptide half-lives were calculated by nonlinear regression analysis of exponential decay curves plotted using Prism software (Graphpad). In vivo plasma concentrations at the indicated time points were used to calculate plasma half-life, peak plasma levels, total plasma clearance, and apparent volume of distribution using noncompartmental analysis.
Blood samples withdrawn at 30 minutes by retro-orbital bleed were subjected to quantitation using LC/MS-based blood tests.

in vivo = details: mouse, plasma, iv
From the text: Plasma concentration, mean+standard error; ND, nondetectable.

CCCC[C@H](NC(C)=O)C(=O)N[C@H](C(=O)N[C@@H](Cc1c[nH]c2ccccc12)C(=O)N[C@@]1(C)CCCC=CCCC[C@@](C)(C(=O)N[C@@H](CCC(=O)O)C(=O)N[C@H](C(=O)N[C@@H](CC(N)=O)C(=O)N[C@@H](CC(N)=O)C(=O)N[C@@H](Cc2ccc(O)cc2)C(=O)N[C@H](C(=O)N[C@@H](CO)C(=O)N[C@@H](CC(C)C)C(=O)N[C@H](C(=O)N[C@@H](Cc2c[nH]cn2)C(=O)N[C@@H](CO)C(=O)N[C@@H](CC(C)C)C(=O)N[C@H](C(=O)N[C@@H](CCC(=O)O)C(=O)N[C@@H](CCC(=O)O)C(=O)N[C@@H](CO)C(=O)N[C@@H](CCC(N)=O)C(=O)N[C@@H](CC(N)=O)C(=O)N[C@@H](CCC(N)=O)C(=O)N[C@@]2(C)CCCC=CCCC[C@@](C)(C(=O)N[C@@H](CCC(N)=O)C(=O)N[C@@H](CCC(=O)O)C(=O)N[C@@H](CC(C)C)C(=O)N[C@@H](CC(C)C)C(=O)N[C@@H](CCC(=O)O)C(N)=O)NC(=O)[C@H](CC(N)=O)NC(=O)[C@H](CCCCN)NC(=O)[C@H](CCC(=O)O)NC2=O)[C@@H](C)CC)[C@@H](C)CC)[C@@H](C)O)[C@@H](C)CC)NC(=O)[C@H](CC(=O)O)NC(=O)[C@H](Cc2c[nH]c3ccccc23)NC(=O)[C@H](CCC(=O)O)NC1=O)[C@@H](C)O [SAH-gp41(626-662)(A, F)] (Ac-[Nle]TW[S5]EWD[S5]EINNYTSLIHSLIEESQNQ[S5]EKN[S5]QELLE-NH2; staple 4-8, 28-32; N-terminus and C-terminus assumed)
α-helicity, in words [1]: even greater α-helicity at pH 2 than at pH 7
CL: 1.0 mL/min/kg
level measured in the blood, fold of unmodified peptide ([2]; 10 mg/kg, blood samples at 30 minutes): more than 6 fold
in vivo stability, in words ([2]; intravenous, 10 mg/kg, plasma concentrations of intact peptide): marked in vivo stability
fold decrease in clearance ([2]; noncompartmental analysis): about 10 fold
fold enhancement in area under the curve (AUC) ([2]; noncompartmental analysis, serial blood draws): about 10 fold
intact peptide in blood/plasma after oral administration ([2]; oral gavage, 30 minutes after administration): measurable and dose-responsive levels; also recorded: measurable and dose-responsive plasma concentrations
Cmax (in vivo): 140 µg/mL
